Assay results published in patent US7879886B2, “Iron binding agents” (University of Florida Research Foundation, Inc., priority 1998, dated 2011).
Where two headings read alike, the source gives them in different places.

How the values were obtained:
[1] = cited from earlier work
[2] = Iron clearance efficiency in the normal (not iron-loaded) bile duct-cannulated Sprague-Dawley rat; format: in vivo
Source text: (§1) One screen for efficacy is the normal (not iron-loaded) Sprague-Dawley rat with a cannulated bile duct. In this model, collection of bile and urine after oral or parenteral administration of a chelator permits the rapid determination of the magnitude and route(s) of excretion. The iron-loaded Cebus apella monkey is used as a better screen, however. To date, the behavior of iron chelators in this primate model has been-quantitatively predictive of both the magnitude and routes of iron clearance after human administration.
(§2) The primary measure of activity is the efficiency of the compound, as assessed in both rodent and primate models and compared with sc DFO. Compound efficiency is a comparative evaluation of how much iron excretion a chelator promotes relative to the theoretical amount. For example, the hexacoordinate chelator DFO forms 1:1 iron complexes with a formation constant of 3×10^30 M^−1 (Anderegg et al., Helv. Chim. Acta 46: 1409-1422 (1963)); if the efficiency were 100%, one mmol of DFO administered to an animal would cause one mmol of the iron complex to be excreted. In fact, only 5% of the calculated iron is excreted when DFO is administered to humans (Kirking et al., Clin. Pharmacol. 10:775-783 (1991)). In the case of the DFT analogues, the efficiency calculation is based on the formation of a 2:1 complex with a formation constant assumed to be similar to that of the parent compound, 4×10^29 M^−1 (Anderegg et al., J. Chem. Soc., Chem. Commun. 1194-1196 (1990).

[3] = Iron clearance efficiency in the iron-loaded Cebus apella monkey; format: in vivo
Source text: as §1, §2

[4] = tested on: malarial parasites; test: Impact on malarial parasites in vitro (48 h exposure, 48 h after removal, percent parasitemia); format: cell-based, Plasmodium
Source text: Studies can be done on the developmental stages and morphology of the malarial parasite in vitro; the minimum effective concentration required for cytotoxicity can be shown. The target structures include the nuclear envelope, the membrane of the food vacuole, accumulation of electron-dense substances in the mitochondria, undigested materials, and dilation of the endoplasmic reticulum.
In order to determine the concentration at which a compound is cytostatic and cytotoxic, the parasites are exposed to the drug using at least two different concentrations. After 48 h the chelator is removed, and the parasites are incubated for an additional 48 h. The percent parasitemia is determined at both time points (48 and 96 h). The effects of the various compounds on malarial parasites seem quite varied. For the purposes of comparison, DFO can serve as the positive control. […] However, at a concentration of 10^−4 M, DFO is cytotoxic; the plasmodia die during the 48-h incubation with the compound.
The compounds designated as 8 and 22 in Table I are active in this in vitro assay. Others can be similarly tested.

[5] = administered to humans; cited from earlier work

Row | SMILES | % Efficiency of Iron Clearance ([2]; route not given) | % Efficiency of Iron Clearance ([3]; 150 μmol/kg po) | % Efficiency of Iron Clearance ([2]; po) | % Efficiency of Iron Clearance ([2]; sc) | % Efficiency of Iron Clearance ([3]; 300 μmol/kg po) | other results
1 | C[C@]1(C(=O)O)CSC(c2ncccc2O)=N1 [1(S), desferrithiocin, reference compound] | 5.5 ± 3.2% | 16.1 ± 8.5% | – | – | – | Formation constant of iron complex ([1]; 2:1 complex): 4e+29 M⁻¹
2 | O=C(O)[C@H]1CSC(c2ncccc2O)=N1 [2(S), (S)-desmethyldesferrithiocin] | – | 4.8 ± 2.7% | 2.4 ± 0.56 (po) % | 1.8 ± 0.7 (sc) % | 8.0 ± 2.5% | % Efficiency of Iron Clearance ([3]; 300 μmol/kg sc): 8.3 ± 2.7%
3 | O=C(O)C1CSC(c2ccc(O)cc2O)=N1 [5(R), 4,5-Dihydro-2-(2-,4-dihydroxyphenyl)-4-thiazolecarboxylic acid] | ≦0.5% | 1.7 ± 0.8% | – | – | – | –
4 | O=C(O)C1CSC(c2ccc(O)cc2O)=N1 [5(S), 4,5-Dihydro-2-(2-,4-dihydroxyphenyl)-4-thiazolecarboxylic acid] | – | 4.2 ± 1.4% | 2.4 ± 0.9 (po) % | – | 5.3 ± 1.7% | % Efficiency of Iron Clearance ([3]; 150 μmol/kg in H2O sc): 5.6 ± 0.9%; % Efficiency of Iron Clearance ([3]; 300 μmol/kg in H2O po): 4.8 ± 1.4%
5 | COc1cccc(C2=N[C@@H](C(=O)O)CS2)c1O [6(S), (S)-4,5-dihydro-2-(2-hydroxy-3-methoxyphenyl)-4-thiazolecarboxylic acid] | – | – | 0.9 ± 0.3 (po) % | 0.5 ± 0.9 (sc) % | – | –
6 | O=C(O)c1ccc(C2=N[C@@H](C(=O)O)CS2)c(O)c1 [7(S), (S)-4,5-Dihydro-2-(2-hydroxy-4-carboxyphenyl)-4-thiazolecarboxylic acid] | ≦0.5% | – | – | – | – | –
7 | C[C@]1(C(=O)O)CSC(c2ccccc2O)=N1 [9(S)] | – | – | 2.7 ± 0.5 (po) % | – | 13.1 ± 4% | % Efficiency of Iron Clearance ([3]; 75 μmol/kg po): 21.5 ± 12%; % Efficiency of Iron Clearance ([3]; 300 μmol/kg sc): 43.3 ± 8.5%
8 | O=C(O)C1CCSC(c2ncccc2O)=N1 [14(S), 2-(3-hydroxy-2-pyridinyl)4H-5,6-dihydro-1,3-thiazine-4-carboxylic acid] | ≦0.5% | – | – | – | – | –
9 | O=C(O)[C@H]1CSC(Cc2ccccc2O)=N1 [15(S), (S)-4,5-Dihydro-2-(2-hydroxyphenylmethyl)-4-thiazolecarboxylic acid] | ≦0.5% | – | – | – | – | –
10 | O=C(O)C[C@H]1CSC(c2ccccc2O)=N1 [16(S), (S)-4,5-Dihydro-2-(2-hydroxyphenyl)-4-thiazoleacetic acid] | ≦0.5% | – | – | – | – | –
11 | O=C(O)CC[C@H]1CSC(c2ccccc2O)=N1 [17(S), (S)-4,5-dihydro-2-(2-hydroxyphenyl)-4-thiazolepropanoic acid] | ≦0.5% | – | – | – | – | –
12 | C[C@]1(C(=O)O)CSC(c2ccc(O)cc2O)=N1 [28(S), 4′-hydroxydesazaDFT] | ≦0.5% | 13.4 ± 5.8% | – | – | – | % Efficiency of Iron Clearance ([3]; 75 μmol/kg po): 17.7 ± 3.9%
13 | CN(O)C(=O)[C@H]1CSC(c2ncccc2O)=N1 [Compound 22, (S)-desmethyldesferrithiocin, N-methylhydroxamate] | – | 6.9 ± 3.0% | 3.1 ± 0.4 (po) % | 5.3 ± 0.7 (sc) % | 13.2 ± 7.7% | % Efficiency of Iron Clearance ([3]; 150 μmol/kg sc): 11.7 ± 5.5%; Activity in the in vitro malarial parasite assay [4]: active
14 | O=C(C1CSC(c2ncccc2O)=N1)N(O)Cc1ccccc1 (stereo not shown) [Compound 24] | – | – | 1 ± 0.1 (po) % | 1.4 ± 0.8 (sc) % | ≦0.5% | % Efficiency of Iron Clearance ([3]; 300 μmol/kg sc): ≦0.5%
15 | Oc1cccnc1C1=N[C@@H](N(O)CCOCCOCCN(O)[C@H]2CSC(c3ncccc3O)=N2)CS1 [Compound 25, (S,S)-N^1,N^8-bis[4,5-dihydro-2-(3-hydroxy-2-pyridinyl)-4-thiazoyl]-N^1,N^8-dihydroxy-3,6-dioxa-1,8-octanediamine] | – | – | 4.6 ± 2.1 (po) % | 20.6 ± 1.3 (sc) % | – | –
16 | CC(=O)N(O)CCCCCNC(=O)CCC(=O)N(O)CCCCCNC(=O)CCC(=O)N(O)CCCCCN [DFO] | – | – | – | – | – | Formation constant of iron complex ([1]; 1:1 iron complex): 3e+30 M⁻¹; Efficiency: calculated iron excreted [5]: 5%; Effect on plasmodia ([4]; 48-h incubation at 10^−4 M): cytotoxic; Malarial growth after the compound is removed ([4]; after 48-h exposure at 10^−5 M, compound removed): normal growth resumes; Effect on malarial growth ([4]; initial 48-h continuous exposure at 10^−5 M): inhibits malarial growth
